Like-named read-outs stand apart in the source and are kept apart here.
Assays:
[1] = tested on: human KRAS G12C mutated cell line MIA PaCa-2; experiment: KRas G12C in vitro inhibitory activity: cell proliferation, CellTiter-Glo; type: cell-based
From the text: (§1) The present example evaluates the ability of compounds provided herein to inhibit proliferation of KRAS mutant cells.
The inhibitory effect on cell proliferation was investigated in the human KRAS G12C mutated cell line MIA PaCa-2 (Yunis et al., 1977, Int. J. Cancer 19(1):128-135; ATCC catalog no. CRL-1420). Cells were maintained in RPMI-1640 medium (ThermoFisher catalog no. 61870036) supplemented with 10% of Heat Inactivated FBS (ThermoFisher catalog no. A31605) and 1% Pen-Strep (ThermoFisher catalog no. 10378016) and cultured at 37° C. in a humidified incubator with 5% CO2. Cells were grown by adhering to culture flasks, and maintained at 70%-80% confluency.
(§2) ATP is present in all metabolically active cells and is considered as a marker for viable cells. The number of metabolically active live cells in culture was determined using the CellTiter-Glo kit (Promega catalog no. G7572), an ATP monitoring system based on the production of luminescence by the reaction of ATP with added UltraGlo® recombinant luciferase (Kawano et al., 2016, PLOS One, 8; 11(7):e0158888), according to the supplier's experimental recommendations. The cell proliferation assay was based on a 96 well plate format.
(§3) Test compounds were dissolved at 10 mM in DMSO (Sigma catalog no. D8418; purity >99.9%) and stored at −20° C. Eight concentrations of test compound were assessed in duplicate in an individual test occasion in parallel in the selected cell lines. MRTX-849 and AMG-510 were used as reference compounds and tested in duplicate at eight concentrations. 100% of proliferation is represented by the untreated cells (0.2% DMSO).
(§4) On the day of the experiment (TO), cells were detached with TrypLE (ThermoFisher catalog no. 12604054), quantified using the cell viability analyser NucleoCounter (Chemometec NC-200) and resuspended in fresh medium at a cell density of about 5000 cells per 200 μL medium. 200 μL of cell suspension were added to each well of a 96 well plate.
Two hours after seeding cells, compounds were added at desired concentrations using a D300e compound dispenser (Life Sciences Tecan D300) with shaking after each compound addition. Assay plates were incubated at 37° C. in a humidified incubator with 5% CO2.
(§5) To measure 3 day inhibition of cell proliferation on day 3 (T3), assay plates were equilibrated to room temperature for approximately 15 min, and the Promega CellTiterGlo® reagent was added at 40 μL/well. Contents were mixed for 5 min on an orbital shaker to induce cell lysis, and then incubated at room temperature for an additional 10 min in the dark to stabilize the luminescent signal. Luminescence was read using a GloMax GM300 plate reader (Promega) using the luminescence for 96 well plate standard protocol.
as §5, with “measure 7” for “measure 3”, “(T3), 150 μL of growth media was removed from each well of the assay plates and replaced with 150 uL fresh growth media, and fresh compounds added using a D300e compound dispenser (Life Sciences Tecan D300) at desired concentrations with shaking between each compound addition. Assay plates were incubated at 37° C. in a humidified incubator with 5% CO2. On day 7 (T7)” for “(T3),”
Data was expressed as % of inhibition compared to the 0.2% DMSO negative no drug control, and is calculated as follows: % inhibition=100−[(RLU sample)×100/(RLU average controls*)], where * indicates the average for 0.2% DMSO.
(§6) Results were analyzed by GraphPad (Prism) and IC50 values were calculated by non-linear regression using four parameter-logistic equation. […]

[2] = tested on: human KRAS G12D mutated cell line SUIT-2; experiment: KRas G12D in vitro inhibitory activity: cell proliferation, CellTiter-Glo; type: cell-based; conditions: 7 day inhibition of cell proliferation, medium and compound renewed on day 3, CellTiter-Glo luminescence
From the text: as §1
The proliferation inhibitory effect was investigated in the human KRAS G12D mutated cell line SUIT-2 (Iwamura et al., 1987, Jpn. J. Cancer Res. 78.54-62; JCRB catalog no. JCRB1094). Cells were maintained in RPMI-1640 medium (ThermoFisher catalog no. 61870036) supplemented with 10% of Heat Inactivated FBS (ThermoFisher catalog no. A31605) and 1% Pen-Strep (ThermoFisher catalog no. 10378016) and cultured at 37° C. in a humidified incubator with 5% CO2. Cells were grown by adhering to culture flasks, and maintained at 70%-80% confluency.
as §2
as §3, with “(0.1%” for “(0.2%”
as §4, with “12604054)” for “12604054),”, “analyzer” for “analyser”, “1000” for “5000”
Two 2 hours after seeding cells, compounds were added at desired concentrations using a D300e compound dispenser (Life Sciences Tecan D300) with shaking after each compound addition. Assay plates were incubated at 37° C. in a humidified incubator with 5% CO2.
On day 3 (T3), 150 μL of growth media was removed from each well of the assay plates and replaced with 150 uL fresh growth media, and fresh compounds added using a D300e compound dispenser (Life Sciences Tecan D300) at desired concentrations with shaking between each compound addition. […] Luminescence was read using a GloMax GM300 plate reader (Promega) using the luminescence for 96 well plate standard protocol. […]
as §6

[3] = 18-membered ring, DCM, 25.0 °C
[4] = Homo sapiens, MIA PaCa-2, 72 h, 3 day inhibition of cell proliferation, CellTiter-Glo luminescence, read-out: MIA PaCa-2 Day 3 IC50
[5] = Homo sapiens, MIA PaCa-2, 7 day inhibition of cell proliferation, medium and compound renewed on day 3, CellTiter-Glo luminescence, read-out: MIA PaCa-2 Day 7 IC50

With `CCn1c(-c2cccnc2[C@H](C)OC)c2c3cc(ccc31)-c1cccc(c1)C[C@H](NC(=O)[C@H](C(C)C)N(C)C(=O)[C@H]1CCN(CC#CC(=O)N(C)C)C1)C(=O)N1CCC[C@H](N1)C(=O)OCC(C)(C)C2` (atropisomer, axis not shown) [Compound 3, (3S)-1-(4-(dimethylamino)-4-oxobut-2-yn-1-yl)-N-((2S)-1-(((6^3S,4S)-1^1-ethyl-1^2-(2-((S)-1-methoxyethyl)pyridin-3-yl)-10,10-dimethyl-5,7-dioxo-6^1,6^2,6^3,6^4,6^5,6^6-hexahydro-1^1H-8-oxa-1(5,3)-indola-6(1,3)-pyridazina-2(1,3)-benzenacycloundecaphane-4-yl)amino)-3-methyl-1-oxobutan-2-yl)-N-methylpyrrolidine-3-carboxamide] the IC50 [1, 4] was 1 to 10 nM, the IC50 [1, 5] was 1 to 10 nM and the IC50 [2] was greater than 100 nM.
In the case of `CCn1c(-c2cccnc2[C@H](C)OC)c2c3cc(ccc31)-c1cccc(c1)C[C@H](NC(=O)[C@H](C(C)C)N(C)C(=O)[C@H]1CCN(C(=O)C#CC(=O)N(C)C)C1)C(=O)N1CCC[C@H](N1)C(=O)OCC(C)(C)C2` (atropisomer, axis not shown) [Compound 4], the IC50 [1, 5] is reported as greater than 100 nM and the IC50 [2] is reported as greater than 100 nM.
With `CCn1c(-c2cccnc2[C@H](C)OC)c2c3cc(ccc31)-c1cccc(c1)C[C@H](NC(=O)OC(C)(C)C)C(=O)N1CCC[C@H](C1)C(=O)OCC(C)(C)C2` the ring closure, isolated yield ([3]; from CCn1c(-c2cccnc2[C@H](C)OC)c(CC(C)(C)CO)c2cc(-c3cccc(C[C@H](NC(=O)OC(C)(C)C)C(=O)N4CCC[C@@H](C(=O)O)C4)c3)ccc21, ester bond, EDCI/HOBT/DIPEA, 9.6 mM, 16.0 h, 2 steps) was 62% and the ring closure, isolated yield ([3]; from CCn1c(-c2cccnc2[C@H](C)OC)c(CC(C)(C)CO)c2cc(-c3cccc(C[C@H](NC(=O)OC(C)(C)C)C(=O)N4CCC[C@@H](C(=O)O)C4)c3)ccc21, ester bond, EDCI/HOBT/DIPEA, 9.9 mM, 16.0 h, 2 steps) was 56%.
`CCn1c(-c2cccnc2[C@H](C)OC)c2c3cc(ccc31)-c1cccc(c1)C[C@H](NC(=O)OCc1ccccc1)C(=O)N1CCC[C@@H](CC(=O)OC(C)(C)C2)C1` showed a ring closure, isolated yield ([3]; from CCn1c(-c2cccnc2[C@H](C)OC)c(CC(C)(C)OC(=O)C[C@@H]2CCCNC2)c2cc(-c3cccc(C[C@H](NC(=O)OCc4ccccc4)C(=O)O)c3)ccc21, amide bond, T3P/DIPEA, 32.3 mM, 1.0 h, 3 steps) of 44%.
Compound `CCn1c(-c2cccnc2[C@H](C)OC)c2c3cc(ccc31)-c1cccc(c1)C[C@H](NC(=O)[C@H](C(C)C)N(C)C(=O)[C@H]1CCN(C(=O)C#CCN3CCOCC3)C1)C(=O)N1CCC[C@H](C1)C(=O)OCC(C)(C)C2` (atropisomer, axis not shown) [Compound 1, (3S)—N-((2S)-1-(((6^3R,4S)-1^1-ethyl-1^2-(2-((S)-1-methoxyethyl)pyridin-3-yl)-10,10-dimethyl-5,7-dioxo-1^1H-8-oxa-1(5,3)-indola-6(1,3)-piperidina-2(1,3)-benzenacycloundecaphane-4-yl)amino)-3-methyl-1-oxobutan-2-yl)-N-methyl-1-(4-morpholinobut-2-ynoyl)pyrrolidine-3-carboxamide] has an IC50 ([1]; 7 day inhibition of cell proliferation, medium and compound renewed on day 3, CellTiter-Glo luminescence, read-out: MIA PaCa-2 Day 7 IC50) of 10 to 100 nM and an IC50 [2] greater than 100 nM.
Compound `CCn1c(-c2cccnc2[C@H](C)OC)c2c3cc(ccc31)-c1cccc(c1)C[C@H](NC(=O)[C@H](C(C)C)N(C)C(=O)[C@H]1CCN(C(C)C#CC(=O)N(C)C)C1)C(=O)N1CCC[C@H](N1)C(=O)OCC(C)(C)C2` (stereo partly shown) [Compound 5] has an IC50 [1, 4] of 1 to 10 nM, an IC50 [1, 5] of 10 to 100 nM and an IC50 [2] greater than 100 nM.

From patent US20250066386A1, “INHIBITORS OF KRAS” (BIOMEA FUSION, INC., priority 2022, published 2025)
